# Laboratory results from patent US6479435B1, “Diaryl ethers and processes for their preparation and herbicidal and desiccant compositions containing them” (ISK Americas Incorporated, priority 1997, dated 2002).
# How the values were obtained:
# Format in all cases: in vivo
# [1] = test system: soybean (Glycine max L., var. Pella 86, SOY); assay: Post-emerge greenhouse test, crop damage rating; set-up: key to crop damage rating SOY: 0-100 scale: 0 = no damage, 100 = complete death of all plants; settings: 14 days after application, scale 0-100
# Text: (§1) A standard greenhouse herbicide activity screening system was used to evaluate the herbicidal efficacy and crop safety of these test compounds. Six broadleaf weed species including redroot pigweed (Amaranthus retroflexus, AMARE), velvetleaf (Abutilon theophrasti, ABUTH), sicklepod (Cassia obtusifolia, CASOB), ivyleaf morningglory (Ipomoea hederacea, IPOHE), lambsquarters (Chenopodium album, CHEAL) and common ragweed (Ambrosia artemisiifolia L., AMBEL) were used as test species. Four grass weed species including green foxtail (Setaria viridis, SETVI), barnyardgrass (Echinochloa crusgalli, ECHCG), Johnsongrass (Sorghum halepense, SORHA), and large crabgrass (Digitaria sanguinalis, DIGSA) were also used. In addition, three crop species, field corn (Zea mays L., var. Dekalb 535, CORN), soybean (Glycine max L., var. Pella 86, SOY), and upland rice (Oryza sp., var.Tebonnet, RICE) were included.
# (§2) All test compounds were dissolved in acetone and applied to the test units in a volume of 187 l/ha. Test materials were applied at rates ranging from 125 g ai/ha to 1000 g ai/ha using a track sprayer equipped with a TJ8001E even flow flat fan spray nozzle. Plants were arranged on a shelf so that the top of the canopy (post-emerge) or top of the soil surface (pre-emerge) was 40-45 cm below the nozzle. Pressurized air was used to force the test solution through the nozzle as it was mechanically advanced (via electrically driven chain drive) over the top of all test plants/pots. This application simulates a typical commercial field herbicide application.
# (§3) In the post-emerge test, a commercial non-ionic surfactant was also included (0.25% v/v) to enhance wetting of the leaf surfaces Qf target plants at rates ranging from 63 g ai/ha to 1000 g ai/ha. For post-emerge tests, seeds were planted 8-21 days prior to the test to allow emergence and good foliage development prior to application of the test substances. At the time of the post-emerge application, plants of all species were usually at the 2-3 leaf stage of development. Post-emerge test units were always bottom-watered.
# (§4) At 14 days after application of the test materials, phytotoxicity ratings were recorded. A rating scale of 0-100 was used as previously described in Research Methods in Weed Science, 2nd edition, B. Truelove, Ed., Southern Weed Science Society, Auburn University, Auburn, Ala., 1977. Briefly, “0” corresponds to no damage and “100” corresponds to complete death of all plants in the test unit. This scale was used both to determine efficacy against weed species and damage to crop species. Herbicide activity data for various compounds of this invention, which are shown by compound number in Tables 1-9, are shown in Tables 13 and 14.
# [2] = test system: soybean (Glycine max L., var. Pella 86, SOY); assay: Pre-emerge greenhouse test, crop damage rating; set-up: key to SOY crop damage rating: 0 = no damage, 100 = complete death of all plants; settings: 14 days after application, rating scale 0-100
# Text: as §1
# (§5) All plants were grown in 10 cm square plastic pots which were filled with a sandy loam soil mix. For preemerge tests, seeds were planted one day prior to application of the test compounds. Immediately after application, test units of the pre-emerge applications were watered at the soil surface to incorporate the test materials. Subsequently, these test units were bottom-watered.
# as §2, §4
# [3] = test system: field corn (Zea mays L., var. Dekalb 535, CORN); assay: Post-emerge greenhouse test, crop damage rating; settings: 14 days after application, scale 0-100
# Text: as §1, §2, §3, §4
# [4] = test system: upland rice (Oryza sp., var.Tebonnet, RICE); assay: Post-emerge greenhouse test, crop damage rating; settings: 14 days after application, scale 0-100
# Text: as §1, §2, §3, §4
# [5] = test system: lambsquarters (Chenopodium album, CHEAL); assay: Post-emerge greenhouse herbicide test, phytotoxicity rating; settings: 14 days after application, scale 0-100
# Text: as §1, §2, §3, §4
# [6] = test system: ivyleaf morningglory (Ipomoea hederacea, IPOHE); assay: as above; settings: 14 days after application, scale 0-100
# Text: as §1, §2, §3, §4
# [7] = test system: redroot pigweed (Amaranthus retroflexus, AMARE); assay: as above; settings: 14 days after application, scale 0-100
# Text: as §1, §2, §3, §4
# [8] = test system: Johnsongrass (Sorghum halepense, SORHA); assay: as above; settings: 14 days after application, scale 0-100
# Text: as §1, §2, §3, §4
# [9] = test system: barnyardgrass (Echinochloa crusgalli, ECHCG); assay: as above; settings: 14 days after application, scale 0-100
# Text: as §1, §2, §3, §4
# [10] = test system: green foxtail (Setaria viridis, SETVI); assay: as above; settings: 14 days after application, scale 0-100
# Text: as §1, §2, §3, §4
# [11] = test system: large crabgrass (Digitaria sanguinalis, DIGSA); assay: as above; settings: 14 days after application, scale 0-100
# Text: as §1, §2, §3, §4
# [12] = test system: sicklepod (Cassia obtusifolia, CASOB); assay: as above; settings: 14 days after application, scale 0-100
# Text: as §1, §2, §3, §4
# [13] = test system: velvetleaf (Abutilon theophrasti, ABUTH); assay: as above; settings: 14 days after application, scale 0-100
# Text: as §1, §2, §3, §4
# [14] = test system: lambsquarters (Chenopodium album, CHEAL); assay: Pre-emerge greenhouse herbicide test, phytotoxicity rating; settings: 14 days after application, rating scale 0-100
# Text: as §1, §5, §2, §4
# [15] = test system: ivyleaf morningglory (Ipomoea hederacea, IPOHE); assay: as above; settings: 14 days after application, rating scale 0-100
# Text: as §1, §5, §2, §4
# [16] = test system: redroot pigweed (Amaranthus retroflexus, AMARE); assay: as above; settings: 14 days after application, rating scale 0-100
# Text: as §1, §5, §2, §4
# [17] = test system: Johnsongrass (Sorghum halepense, SORHA); assay: as above; settings: 14 days after application, rating scale 0-100
# Text: as §1, §5, §2, §4
# [18] = test system: barnyardgrass (Echinochloa crusgalli, ECHCG); assay: as above; settings: 14 days after application, rating scale 0-100
# Text: as §1, §5, §2, §4
# [19] = test system: green foxtail (Setaria viridis, SETVI); assay: as above; settings: 14 days after application, rating scale 0-100
# Text: as §1, §5, §2, §4
# [20] = test system: large crabgrass (Digitaria sanguinalis, DIGSA); assay: as above; settings: 14 days after application, rating scale 0-100
# Text: as §1, §5, §2, §4
# [21] = test system: sicklepod (Cassia obtusifolia, CASOB); assay: as above; settings: 14 days after application, rating scale 0-100
# Text: as §1, §5, §2, §4
# [22] = test system: velvetleaf (Abutilon theophrasti, ABUTH); assay: as above; settings: 14 days after application, rating scale 0-100
# Text: as §1, §5, §2, §4
# [23] = test system: field corn (Zea mays L., var. Dekalb 535, CORN); assay: Pre-emerge greenhouse test, crop damage rating; settings: 14 days after application, rating scale 0-100
# Text: as §1, §5, §2, §4
# [24] = test system: upland rice (Oryza sp., var.Tebonnet, RICE); assay: Pre-emerge greenhouse test, crop damage rating; settings: 14 days after application, rating scale 0-100
# Text: as §1, §5, §2, §4
smiles,measurement,setting,value
"Nn1c(C(F)(F)F)cc(=O)n(-c2cc(Oc3cccc(F)n3)c(Cl)cc2F)c1=O [Compound 9-4, 1-Amino-3-[4-chloro-2-fluora-5-(6-fluoro-2-pyridyloxy)phenyl]-6-trifluoromethyl-1,2,3,4-tetrahydropyrimidine-2,4-dione]",crop damage rating SOY,[1]; rate 63 g ai/ha,95
same,crop damage rating SOY,[1]; rate 500 g ai/ha,100
same,SOY crop damage rating,[2]; Rate 125 g al/ha,80
same,SOY crop damage rating,[2]; Rate 500 g al/ha,95
same,crop damage rating CORN,[3]; rate 63 g ai/ha,40
same,crop damage rating CORN,[3]; rate 500 g ai/ha,80
same,crop damage rating RICE,[4]; rate 63 g ai/ha,50
same,crop damage rating RICE,[4]; rate 500 g ai/ha,70
same,phytotoxicity rating CHEAL,[5]; rate 63 g ai/ha,80
same,phytotoxicity rating CHEAL,[5]; rate 500 g ai/ha,100
same,phytotoxicity rating IPOHE,[6]; rate 63 g ai/ha,100
same,phytotoxicity rating IPOHE,[6]; rate 500 g ai/ha,100
same,phytotoxicity rating AMARE,[7]; rate 63 g ai/ha,95
same,phytotoxicity rating AMARE,[7]; rate 500 g ai/ha,100
same,phytotoxicity rating SORHA,[8]; rate 63 g ai/ha,70
same,phytotoxicity rating SORHA,[8]; rate 500 g ai/ha,98
same,phytotoxicity rating ECHCG,[9]; rate 63 g ai/ha,70
same,phytotoxicity rating ECHCG,[9]; rate 500 g ai/ha,100
same,phytotoxicity rating SETVI,[10]; rate 63 g ai/ha,30
same,phytotoxicity rating SETVI,[10]; rate 500 g ai/ha,95
same,phytotoxicity rating DIGSA,[11]; rate 63 g ai/ha,10
same,phytotoxicity rating DIGSA,[11]; rate 500 g ai/ha,95
same,phytotoxicity rating CASOB,[12]; rate 63 g ai/ha,90
same,phytotoxicity rating CASOB,[12]; rate 500 g ai/ha,100
same,phytotoxicity rating ABUTH,[13]; rate 63 g ai/ha,100
same,phytotoxicity rating ABUTH,[13]; rate 500 g ai/ha,100
same,CHEAL phytotoxicity rating,[14]; Rate 125 g al/ha,100
same,CHEAL phytotoxicity rating,[14]; Rate 500 g al/ha,100
same,IPOHE phytotoxicity rating,[15]; Rate 125 g al/ha,100
same,IPOHE phytotoxicity rating,[15]; Rate 500 g al/ha,100
same,AMARE phytotoxicity rating,[16]; Rate 125 g al/ha,100
same,AMARE phytotoxicity rating,[16]; Rate 500 g al/ha,100
same,SORHA phytotoxicity rating,[17]; Rate 125 g al/ha,99
same,SORHA phytotoxicity rating,[17]; Rate 500 g al/ha,100
same,ECHCG phytotoxicity rating,[18]; Rate 125 g al/ha,100
same,ECHCG phytotoxicity rating,[18]; Rate 500 g al/ha,100
same,SETVI phytotoxicity rating,[19]; Rate 125 g al/ha,100
same,SETVI phytotoxicity rating,[19]; Rate 500 g al/ha,100
same,DIGSA phytotoxicity rating,[20]; Rate 125 g al/ha,100
same,DIGSA phytotoxicity rating,[20]; Rate 500 g al/ha,100
same,CASOB phytotoxicity rating,[21]; Rate 125 g al/ha,60
same,CASOB phytotoxicity rating,[21]; Rate 500 g al/ha,100
same,ABUTH phytotoxicity rating,[22]; Rate 125 g al/ha,100
same,ABUTH phytotoxicity rating,[22]; Rate 500 g al/ha,100
same,CORN crop damage rating,[23]; Rate 125 g al/ha,60
same,CORN crop damage rating,[23]; Rate 500 g al/ha,95
same,RICE crop damage rating,[24]; Rate 125 g al/ha,40
same,RICE crop damage rating,[24]; Rate 500 g al/ha,99
